We go through 21 compounds from ChEMBL document CHEMBL1649335, “Discovery of {1-[4-(2-{hexahydropyrrolo[3,4-c]pyrrol-2(1H)-yl}-1H-benzimidazol-1-yl)piperidin-1-yl]cyclooctyl}methanol, systemically potent novel non-peptide agonist of nociceptin/orphanin FQ receptor as analgesic for the treatment of neuropathic pain: design, synthesis, and structure-activity …” (Bioorg Med Chem, 2010).

The structures appear in SMILES notation. Activity calls are given as the source filed them.

Series [1] is described as follows: Inhibition of rat GABA transporter.
A short description of series [2]: Inhibition of rat choline transporter.
Series [3] deals with T1, Voltage-gated L-type calcium channel (Rattus norvegicus, UniProt P22002+Q02485+P27732). Put plainly: Inhibition of rat L-type Ca2+ channel dihydropyridine site.
Series [4] can be described thus: Inhibition of rat chloride channel.
Series [5] deals with Kappa-type opioid receptor (Homo sapiens, UniProt P41145).
For the next series, the target named is Mu-type opioid receptor (Homo sapiens, UniProt P35372).
In series [6] the target is T2, Nociceptin receptor (Homo sapiens, UniProt P41146).
Another series can be described thus: in vitro. The conditions noted are these: human, liver microsomes.
Series [7] has as its target T2, Nociceptin receptor. Put plainly: biochemical.
Series [8] is described as follows: Inhibition of rat K+ATP channel.
Series [9] is described as follows: Stimulation of rat adenylate cyclase.
Series [10] can be described thus: Inhibition of rat 5-HT receptor.
The target in another series is Tyrosine 3-monooxygenase (Rattus norvegicus, UniProt P04177). The series is described as follows: Inhibition of rat tyrosine hydroxylase.
In series [11] the test system is Rattus norvegicus. The series is described as follows: Antiallodynic activity against von Frey hair mechanically stimulated neuropathic pain in intrathecally dosed Sprague-Dawley rat assessed as increase of response threshold per site after 20 mins. It is filed as functional.
Series [12] relates to Rattus norvegicus. The series is described as follows: Antiallodynic activity against von Frey hair mechanically stimulated neuropathic pain in intrathecally dosed Sprague-Dawley rat assessed as assessed as minimum effective dose to increase of response threshold per site after 20 mins. The series is classed as functional.
Series [13] deals with Rattus norvegicus. Put plainly: Antiallodynic activity against von Frey hair mechanically stimulated neuropathic pain in Sprague-Dawley rat assessed as increase of response threshold per site at 0.55 to 55 nmol/site administered intrathecally after 1 hr. It is filed as functional, organism-based.
Series [14] concerns Rattus norvegicus. The series is described as follows: Antiallodynic activity against von Frey hair mechanically stimulated neuropathic pain in Sprague-Dawley rat assessed as assessed as minimum effective dose to increase of response threshold per site at 0.55 to 55 nmol/site administered intrathecally after 1 hr. It is filed as functional, organism-based.
The subject of series [15] is Rattus norvegicus. The series is described as follows: Antiallodynic activity against von Frey hair mechanically stimulated neuropathic pain in Sprague-Dawley rat assessed as increase of response threshold per site at 0.55 to 170 nmol/site, icv after 1 hr. It is filed as functional, organism-based.
Series [16] concerns Rattus norvegicus. Put plainly: Antiallodynic activity against von Frey hair mechanically stimulated neuropathic pain in Sprague-Dawley rat assessed as assessed as minimum effective dose to increase of response threshold per site at 0.55 to 170 nmol/site, icv after 1 hr. It is filed as functional, organism-based.
Series [17] has as its system Rattus norvegicus. The series is described as follows: Antiallodynic activity against von Frey hair mechanically stimulated neuropathic pain in Sprague-Dawley rat assessed as increase of response threshold per site at 0.55 to 170 nmol/site, icv after 20 mins. It is filed as functional, organism-based.
The subject of series [18] is Rattus norvegicus. Put plainly: Antiallodynic activity against von Frey hair mechanically stimulated neuropathic pain in Sprague-Dawley rat assessed as assessed as minimum effective dose to increase of response threshold per site at 0.55 to 170 nmol/site, icv after 20 mins. It is filed as functional, organism-based.
For series [19], the system named is Rattus norvegicus. Put plainly: Antiallodynic activity against von Frey hair mechanically stimulated neuropathic pain in Sprague-Dawley rat assessed as effect on allodynia in contralateral paw at 0.55 to 170 nmol/site administered intrathecally after 20 mins. The series is classed as functional, organism-based.
The test system of series [20] is Rattus norvegicus. Put plainly: Antiallodynic activity against von Frey hair mechanically stimulated neuropathic pain in Sprague-Dawley rat assessed as effect on allodynia in contralateral paw at 0.55 to 170 nmol/site administered intrathecally after 1 hr. It is filed as functional, organism-based.
Series [21] relates to Rattus norvegicus. The series is described as follows: Antiallodynic activity against von Frey hair mechanically stimulated neuropathic pain in icv dosed Sprague-Dawley rat assessed as decrease of response threshold in contralateral paw after 20 mins. It is filed as functional, organism-based.
The subject of series [22] is Rattus norvegicus. The series is described as follows: Antiallodynic activity against von Frey hair mechanically stimulated neuropathic pain in icv dosed Sprague-Dawley rat assessed as decrease of response threshold in contralateral paw after 1 hr. It is filed as functional, organism-based.
The nature of series [23]: Inhibition of rat N-type Ca2+ channel.
The nature of series [24]: Inhibition of rat phospholipase C.
The nature of series [25]: Inhibition of rat Na+ channel site 2.
For series [26], the system named is Rattus norvegicus. Put plainly: Antiallodynic activity against von Frey hair mechanically stimulated neuropathic pain in Sprague-Dawley rat assessed as increase of response threshold at 1 to 30 mg/kg, sc after 30 mins to 4 hrs. The series is classed as functional, organism-based.
Series [27] deals with Rattus norvegicus. Put plainly: Antiallodynic activity against von Frey hair mechanically stimulated neuropathic pain in Sprague-Dawley rat assessed as assessed as minimum effective dose to increase of response threshold at 1 to 30 mg/kg, sc after 30 mins to 4 hrs. The series is classed as functional, organism-based.
Series [28] relates to Rattus norvegicus. The series is described as follows: Antiallodynic activity against von Frey hair mechanically stimulated neuropathic pain in Sprague-Dawley rat assessed as effect on allodynia in contralateral paw at 1 to 30 mg/kg, sc after 30 mins to 4 hrs. It is filed as functional, organism-based.
The target in series [29] is T1, Voltage-gated L-type calcium channel. Put plainly: Inhibition of rat L-type Ca2+ channel verapamil site.
Another series deals with Glutamate NMDA receptor. The series is described as follows: Inhibition of rat NMDA receptor. The series is classed as protein-complex assay.

Chain of Mu-type opioid receptor (P35372 whole entry): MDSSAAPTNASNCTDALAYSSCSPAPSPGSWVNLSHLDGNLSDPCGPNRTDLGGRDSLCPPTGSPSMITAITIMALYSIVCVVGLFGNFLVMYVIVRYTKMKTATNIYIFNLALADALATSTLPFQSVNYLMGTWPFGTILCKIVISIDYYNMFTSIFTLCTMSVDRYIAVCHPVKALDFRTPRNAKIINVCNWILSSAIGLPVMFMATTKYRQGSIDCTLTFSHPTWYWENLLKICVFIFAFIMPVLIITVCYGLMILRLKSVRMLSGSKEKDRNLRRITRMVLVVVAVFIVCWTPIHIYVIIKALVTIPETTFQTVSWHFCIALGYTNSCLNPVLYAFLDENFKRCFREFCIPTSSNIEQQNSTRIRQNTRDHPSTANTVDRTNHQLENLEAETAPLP
T2 sequence (P41146 whole entry): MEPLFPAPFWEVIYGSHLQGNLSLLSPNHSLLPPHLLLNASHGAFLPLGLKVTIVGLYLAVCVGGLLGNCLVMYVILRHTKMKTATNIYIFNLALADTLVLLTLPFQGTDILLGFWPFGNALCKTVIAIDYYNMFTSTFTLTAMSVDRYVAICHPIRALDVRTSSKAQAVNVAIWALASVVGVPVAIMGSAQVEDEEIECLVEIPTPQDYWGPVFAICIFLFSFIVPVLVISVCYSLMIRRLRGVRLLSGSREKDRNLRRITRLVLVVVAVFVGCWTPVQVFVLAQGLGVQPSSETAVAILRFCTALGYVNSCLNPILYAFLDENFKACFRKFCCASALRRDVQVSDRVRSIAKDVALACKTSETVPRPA
Chain of Kappa-type opioid receptor (P41145 whole entry): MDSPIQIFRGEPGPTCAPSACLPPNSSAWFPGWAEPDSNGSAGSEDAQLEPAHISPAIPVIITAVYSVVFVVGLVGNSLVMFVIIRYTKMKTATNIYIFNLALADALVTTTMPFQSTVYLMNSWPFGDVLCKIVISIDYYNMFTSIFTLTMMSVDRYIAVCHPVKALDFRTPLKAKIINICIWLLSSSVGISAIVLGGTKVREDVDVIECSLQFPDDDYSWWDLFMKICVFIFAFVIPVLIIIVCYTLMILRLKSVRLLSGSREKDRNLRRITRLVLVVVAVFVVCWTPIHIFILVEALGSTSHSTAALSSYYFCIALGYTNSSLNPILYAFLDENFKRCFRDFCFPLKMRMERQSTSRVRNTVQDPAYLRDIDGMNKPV
Chain of Tyrosine 3-monooxygenase (P04177 whole entry): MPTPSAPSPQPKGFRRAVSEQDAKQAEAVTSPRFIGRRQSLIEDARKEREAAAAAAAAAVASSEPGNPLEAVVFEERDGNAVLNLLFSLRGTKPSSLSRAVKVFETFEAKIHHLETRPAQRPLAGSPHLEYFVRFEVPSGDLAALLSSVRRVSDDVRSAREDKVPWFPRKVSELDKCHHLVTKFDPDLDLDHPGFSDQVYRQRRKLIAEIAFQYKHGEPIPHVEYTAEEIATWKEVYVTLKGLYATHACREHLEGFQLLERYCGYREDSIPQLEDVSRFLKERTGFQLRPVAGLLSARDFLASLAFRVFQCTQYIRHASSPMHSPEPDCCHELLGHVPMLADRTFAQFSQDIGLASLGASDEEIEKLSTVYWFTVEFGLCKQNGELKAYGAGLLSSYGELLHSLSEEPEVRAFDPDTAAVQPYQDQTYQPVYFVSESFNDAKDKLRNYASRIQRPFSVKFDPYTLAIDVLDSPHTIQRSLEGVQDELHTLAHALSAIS

As to `O=C(O)C1CCCNC1` (stereo not drawn) [NIPECOTIC ACID], in series [1], the midpoint of inhibition, the IC50, lay at 7170 nM.
Turning to `C[N+]1(C)CCO[C@@](O)(c2ccc(-c3ccc([C@@]4(O)C[N+](C)(C)CCO4)cc3)cc2)C1` [HEMICHOLINIUM DIBROMIDE], the IC50 in series [2] was 7.7 nM.
As to `CCOC(=O)C1=C(C)NC(C)=C(C(=O)OC)C1c1cccc([N+](=O)[O-])c1` (stereo not drawn) [NITRENDIPINE], in [3], the IC50 amounted to 1.3 nM.
On to `C=C(C)[C@@H]1[C@H]2OC(=O)[C@@H]1[C@]1(O)C[C@H]3O[C@]34C(=O)O[C@H]2[C@]14C` [PICROTOXININ], for which the IC50 in [4] came to 385 nM.
As to `CC1CN(c2nc3ccccc3n2C2CCN(C3(CO)CCCCCCC3)CC2)CCN1` (stereo not drawn), the 50% effective concentration (EC50) came to 366 nM in series [5], 1770 nM on Mu-type opioid receptor and 38 nM at Nociceptin receptor [6]. For the same compound, in “in vitro”, the half-life at 1 µM was found to be 19.7 min. This compound registered an inhibitory constant (Ki) at Nociceptin receptor [7] of 0.96 nM.
`COc1ccc(Cl)cc1C(=O)NCCc1ccc(S(=O)(=O)NC(=O)NC2CCCCC2)cc1` [GLYBURIDE]: half-maximal inhibition in [8] (IC50) was put at 1.1 nM.
`C=C[C@@]1(C)CC(=O)[C@]2(O)[C@@]3(C)[C@@H](O)CCC(C)(C)[C@@H]3[C@H](O)[C@H](OC(C)=O)[C@@]2(C)O1` [COLFORSIN] came in with an EC50 in [9] of 4300 nM.
In the case of `NCCc1c[nH]c2ccc(O)cc12` [SEROTONIN], half-maximal inhibition in series [10] (IC50) required 2.7 nM.
For the compound `N[C@@H](Cc1ccc(O)c(I)c1)C(=O)O` [IOTYROSINE], at Tyrosine 3-monooxygenase, the IC50 worked out at 1.4 nM.
Consider `CC(C)C[C@H](NC(=O)[C@H](CCCCN)NC(=O)[C@H](CCCNC(=N)N)NC(=O)[C@H](C)NC(=O)[C@H](CO)NC(=O)[C@H](CCCCN)NC(=O)[C@H](CCCNC(=N)N)NC(=O)[C@H](C)NC(=O)CNC(=O)[C@@H](NC(=O)[C@H](Cc1ccccc1)NC(=O)CNC(=O)CNC(=O)[C@@H](N)Cc1ccccc1)[C@@H](C)O)C(=O)N[C@@H](C)C(=O)N[C@@H](CC(N)=O)C(=O)N[C@@H](CCC(N)=O)C(=O)O` [NOCICEPTIN], for which the ED50 in the series with Rattus norvegicus [11] turned out to be 10.3 nmol. Moreover, the MED in the series with Rattus norvegicus [12] is recorded as 55 nmol. Also, the ED50 result in the series on Rattus norvegicus [13], with Rattus norvegicus [15] and in the series on Rattus norvegicus [17] was “inactive” in each case. For the same compound, the MED entry in the series on Rattus norvegicus [14], with Rattus norvegicus [16] and in the series with Rattus norvegicus [18] was “inactive” in each case. The result in the series on Rattus norvegicus [19] and in the series with Rattus norvegicus [20] was inactive. For the same compound, the Activity result with Rattus norvegicus [21] and in the series on Rattus norvegicus [22] was “Dose-dependent effect” each time.
In turn, `C[C@@H](O)[C@@H]1NC(=O)[C@H](Cc2ccc(O)cc2)NC(=O)[C@@H]2C[C@@H](O)CN2C(=O)[C@H](CC(N)=O)NC(=O)[C@@H]2CSSC[C@@H]3NC(=O)[C@H](CO)NC(=O)[C@H](CO)NC(=O)CNC(=O)[C@@H]4C[C@@H](O)CN4C(=O)[C@H](CO)NC(=O)[C@H](CCCCN)NC(=O)[C@@H](N)CSSC[C@H](NC(=O)[C@H](CSSC[C@@H](C(=O)N[C@@H](Cc4ccc(O)cc4)C(N)=O)NC(=O)[C@H](CCCNC(=N)N)NC(=O)[C@H](CCCCN)NC1=O)NC(=O)[C@H](CC(N)=O)NC(=O)[C@H](Cc1ccc(O)cc1)NC(=O)[C@H](CO)NC(=O)[C@H]([C@@H](C)O)NC(=O)[C@@H]1C[C@@H](O)CN1C(=O)[C@H](CO)NC3=O)C(=O)N[C@@H](CCCNC(=N)N)C(=O)N[C@@H](CO)C(=O)N2` gave an IC50 in series [23] of 0.045 nM.
Turning to `CN1CCN(c2nc3ccccc3n2C2CCN(C3(C(=O)O)CCCCCCC3)CC2)CC1`, the inhibition constant (Ki) on Nociceptin receptor [7] was over 250 nM.
Consider `NC[C@@H]1O[C@H](O[C@H]2[C@@H](O)[C@H](O[C@@H]3[C@@H](O)[C@H](N)C[C@H](N)[C@H]3O[C@H]3O[C@H](CN)[C@@H](O)[C@H](O)[C@H]3N)O[C@@H]2CO)[C@H](N)[C@@H](O)[C@@H]1O` [FRAMYCETIN], for which half-maximal inhibition in [24] (IC50) required 7.9 nM.
`OCC1(N2CCC(n3c(-c4ccc(F)c(Cl)c4)nc4ccccc43)CC2)CCCCC1` registered an EC50 on Nociceptin receptor [6] of 53 nM. At Nociceptin receptor [7], this compound gave a Ki of 4.29 nM.
Turning to `OCC1(N2CCC(n3c(-c4ccc(Cl)cc4)nc4ccccc43)CC2)CCCCCCC1`, the EC50 was over 10000 nM at Mu-type opioid receptor and 9.1 nM on Nociceptin receptor [6]. This compound returned a Ki on Nociceptin receptor [7] of 0.15 nM.
Consider `COc1ccc(C(=O)O[C@H]2CC[C@@]3(C)[C@@H]4CC[C@H]5[C@]6(O)C[C@H](O)[C@@]7(O)[C@@H](CN8C[C@@H](C)CC[C@H]8[C@@]7(C)O)[C@]6(O)C[C@@]53O[C@]24O)cc1OC` [VERATRIDINE], for which inhibition in series [25] was half-maximal at 10700 nM (IC50).
As to `CN1CCN(c2nc3ccccc3n2C2CCN(C3(CO)CCCCCCC3)CC2)CC1`, the EC50 in series [5] was found to be 18 nM; at Nociceptin receptor [6] it was 17 nM. This compound also had a half-life at 1 µM in “in vitro” of 9.5 min. Further, the affinity at Nociceptin receptor [7] corresponds to a Ki of 4.29 nM.
In the case of `CC1(C)CN(c2nc3ccccc3n2C2CCN(C3(CO)CCCCCCC3)CC2)CCN1`, the ED50 result with Rattus norvegicus [26] is “inactive”. For the same compound, in the series with Rattus norvegicus [27], the MED result is “inactive”. The outcome with Rattus norvegicus [28] was inactive. The same compound had an EC50 on Nociceptin receptor [6] of 23 nM. For the same compound, on Nociceptin receptor [7], the Ki stood at 4.54 nM.
For `COc1ccc(CCN(C)CCCC(C#N)(c2cc(OC)c(OC)c(OC)c2)C(C)C)cc1OC` (stereo not drawn) [GALLOPAMIL], the IC50 in series [29] is reported as 23 nM.
With `OCC1(N2CCC(n3c(-c4ccc(F)c(Cl)c4)nc4ccccc43)CC2)CCCCCCC1`, the figures for the EC50 at Mu-type opioid receptor and on Nociceptin receptor [6] were 1220 nM and 8.9 nM, respectively. The same compound showed a Ki at Nociceptin receptor [7] of 0.73 nM.
The compound `O=C(O)[C@@H]1C[C@H](CP(=O)(O)O)CCN1` [SELFOTEL] yielded a 50% inhibitory concentration (IC50) at Glutamate NMDA receptor of 1620 nM.
